Data on six compounds can be found in patent publication US20240239784A1, “INDOLE COMPOUNDS AND METHODS OF USE” (GENZYME CORPORATION, priority 2021, published 2024).

Molecules are shown by their SMILES.

This assay concerns NBD1. As to the kind of experiment: Aggregation analysis of NBD1 thermal stability by differential static light scattering (DSLS). Format: binding, Human. The note with it: compound at 100 μM; ΔTagg versus DMSO control.
Turning to `CC(O)(c1ccccc1)c1c[nH]c(-c2cc(Oc3c(F)cc4[nH]ccc4c3CC3SC(=O)NC3=O)ccc2F)n1` (stereo not drawn) [Example 1, 5-((6-Fluoro-5-(4-fluoro-3-(4-(1-hydroxy-1-phenylethyl)-1H-imidazol-2-yl)phenoxy)-1H-indol-4-yl)methyl)thiazolidine-2,4-dione], the “DSLS NBD1/3D Human Stability delta-T (° C.) @ 100 (μM)” value (from here on “DSLS NBD1/3D Human Stability delta-T”) is given as “A (T ≥8° C.)”.

As for `CC(O)(c1ccccc1)c1cnc(-c2cc(Oc3c(F)cc4[nH]ccc4c3CCC(=O)O)ccc2F)[nH]1` (stereo not drawn) [Example 71, 3-(6-Fluoro-5-(4-fluoro-3-(5-(1-hydroxy-1-phenylethyl)-1H-imidazol-2-yl)phenoxy)-1H-indol-4-yl)propanoic acid], the “DSLS NBD1/3D Human Stability delta-T” value is “A (T ≥8° C.)”.

Turning to `COC(=O)c1c(Oc2cccc(-c3ncc(C(C)(O)c4ccccc4)[nH]3)c2)c(F)cc2[nH]ccc12` (stereo not drawn) [Example 7, Methyl 6-fluoro-5-(3-(5-(1-hydroxy-1-phenylethyl)-1H-imidazol-2-yl)phenoxy)-1H-indole-4-carboxylate], the “DSLS NBD1/3D Human Stability delta-T” value is “B (4-8° C.)”. Under `CC(O)(c1ccccc1)c1cnc(-c2cccc(Oc3c(F)cc4[nH]ccc4c3C(N)=O)c2)[nH]1` (stereo not drawn) [Example 9, 6-Fluoro-5-(3-(5-(1-hydroxy-1-phenylethyl)-1H-imidazol-2-yl)phenoxy)-1H-indole-4-carboxamide] stands “A (T ≥8° C.)”; under `[O-][S+](c1ccccc1)c1cnc(-c2cccc(Oc3ccc4[nH]ccc4c3)c2)[nH]1` (stereo not drawn) [Example 31, 5-(3-(5-(Phenylsulfinyl)-1H-imidazol-2-yl)phenoxy)-1H-indole], “B (4-8° C.)”. The value for `O=C(O)CC(c1cccc(-c2nnc(Cc3ccccc3)[nH]2)c1)c1ccc2[nH]ccc2c1` (stereo not drawn) [Example 37, 3-(3-(5-Benzyl-4H-1,2,4-triazol-3-yl)phenyl)-3˜(1H-indol-5-yl)propanoic acid] was “C (≤4° C.)”.
